Paper PMC12102023 (Saudi Pharmaceutical Journal : SPJ, 2025)
Where two headings read alike, the source gives them in different places.

Experiments:
CDK12 = CDK12 (Homo sapiens, UniProt Q9NYV4); assay: CDK12 inhibition assay; format: biochemical
[1] = tested on: MCF7 (mammary gland breast cancer); assay: MTT antiproliferation assay, MCF7; format: cell-based; settings: Homo sapiens, MCF7, read-out: IC50 (µM) MCF- 7
[2] = tested on: WI- 38 (embryonic lung fibroblasts); assay: MTT assay, WI-38 fibroblasts; format: cell-based; settings: Homo sapiens, WI-38, read-out: IC50 (µM) WI- 38
[3] = tested on: HepG2 (hepatocellular carcinoma); assay: MTT antiproliferation assay, HepG2; format: cell-based, human
CDK9 = CDK9 (Homo sapiens, UniProt P50750); assay: biochemical
[4] = tested on: HeLa (cervical epithelioid carcinoma); assay: MTT antiproliferation assay, HeLa; format: cell-based, human
[5] = tested on: HCT116 (colorectal carcinoma); assay: MTT antiproliferation assay, HCT116; format: cell-based; settings: Homo sapiens, HCT-116, read-out: IC50 (µM) HCT- 116
[6] = Homo sapiens, HepG2, read-out: IC50 (µM) HePG- 2, MTT assay, HepG2 cells
[7] = Homo sapiens, HeLa, read-out: IC50 (µM) Hela, MTT assay, HeLa cells
[8] = read-out: IC50 (µM) Hela, MTT assay, HeLa cells

Sequence of CDK9 (P50750 whole entry): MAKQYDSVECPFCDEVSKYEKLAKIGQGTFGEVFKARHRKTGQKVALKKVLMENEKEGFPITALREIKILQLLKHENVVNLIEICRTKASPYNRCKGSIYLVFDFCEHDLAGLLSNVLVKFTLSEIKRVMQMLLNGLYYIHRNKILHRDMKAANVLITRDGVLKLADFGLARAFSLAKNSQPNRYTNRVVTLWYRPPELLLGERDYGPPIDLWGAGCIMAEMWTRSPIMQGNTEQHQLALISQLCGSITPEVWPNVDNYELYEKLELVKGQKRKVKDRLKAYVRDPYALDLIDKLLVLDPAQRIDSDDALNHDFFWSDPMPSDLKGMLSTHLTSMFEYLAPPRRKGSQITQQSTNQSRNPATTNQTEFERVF
Sequence of CDK9 (O60563 whole entry partner): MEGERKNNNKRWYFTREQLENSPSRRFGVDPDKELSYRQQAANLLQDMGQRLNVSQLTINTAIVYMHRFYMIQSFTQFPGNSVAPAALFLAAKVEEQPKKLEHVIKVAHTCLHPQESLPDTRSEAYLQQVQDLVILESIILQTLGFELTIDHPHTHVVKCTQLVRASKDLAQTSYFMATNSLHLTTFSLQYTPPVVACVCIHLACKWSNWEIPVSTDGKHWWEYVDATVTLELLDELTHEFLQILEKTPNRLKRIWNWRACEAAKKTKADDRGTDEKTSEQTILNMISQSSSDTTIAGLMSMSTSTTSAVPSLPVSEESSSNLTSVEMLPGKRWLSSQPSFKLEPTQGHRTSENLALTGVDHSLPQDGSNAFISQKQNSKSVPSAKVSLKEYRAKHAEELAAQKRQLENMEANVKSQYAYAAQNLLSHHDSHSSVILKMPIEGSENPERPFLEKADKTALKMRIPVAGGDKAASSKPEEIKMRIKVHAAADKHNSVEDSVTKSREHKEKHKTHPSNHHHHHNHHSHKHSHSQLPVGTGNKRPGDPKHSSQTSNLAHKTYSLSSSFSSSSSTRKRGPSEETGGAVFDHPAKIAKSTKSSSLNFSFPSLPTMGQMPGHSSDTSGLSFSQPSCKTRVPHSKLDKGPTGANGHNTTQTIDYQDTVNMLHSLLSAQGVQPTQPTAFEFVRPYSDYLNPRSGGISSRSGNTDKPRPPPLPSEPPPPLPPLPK
Sequence of CDK12 (Q9NYV4 whole entry): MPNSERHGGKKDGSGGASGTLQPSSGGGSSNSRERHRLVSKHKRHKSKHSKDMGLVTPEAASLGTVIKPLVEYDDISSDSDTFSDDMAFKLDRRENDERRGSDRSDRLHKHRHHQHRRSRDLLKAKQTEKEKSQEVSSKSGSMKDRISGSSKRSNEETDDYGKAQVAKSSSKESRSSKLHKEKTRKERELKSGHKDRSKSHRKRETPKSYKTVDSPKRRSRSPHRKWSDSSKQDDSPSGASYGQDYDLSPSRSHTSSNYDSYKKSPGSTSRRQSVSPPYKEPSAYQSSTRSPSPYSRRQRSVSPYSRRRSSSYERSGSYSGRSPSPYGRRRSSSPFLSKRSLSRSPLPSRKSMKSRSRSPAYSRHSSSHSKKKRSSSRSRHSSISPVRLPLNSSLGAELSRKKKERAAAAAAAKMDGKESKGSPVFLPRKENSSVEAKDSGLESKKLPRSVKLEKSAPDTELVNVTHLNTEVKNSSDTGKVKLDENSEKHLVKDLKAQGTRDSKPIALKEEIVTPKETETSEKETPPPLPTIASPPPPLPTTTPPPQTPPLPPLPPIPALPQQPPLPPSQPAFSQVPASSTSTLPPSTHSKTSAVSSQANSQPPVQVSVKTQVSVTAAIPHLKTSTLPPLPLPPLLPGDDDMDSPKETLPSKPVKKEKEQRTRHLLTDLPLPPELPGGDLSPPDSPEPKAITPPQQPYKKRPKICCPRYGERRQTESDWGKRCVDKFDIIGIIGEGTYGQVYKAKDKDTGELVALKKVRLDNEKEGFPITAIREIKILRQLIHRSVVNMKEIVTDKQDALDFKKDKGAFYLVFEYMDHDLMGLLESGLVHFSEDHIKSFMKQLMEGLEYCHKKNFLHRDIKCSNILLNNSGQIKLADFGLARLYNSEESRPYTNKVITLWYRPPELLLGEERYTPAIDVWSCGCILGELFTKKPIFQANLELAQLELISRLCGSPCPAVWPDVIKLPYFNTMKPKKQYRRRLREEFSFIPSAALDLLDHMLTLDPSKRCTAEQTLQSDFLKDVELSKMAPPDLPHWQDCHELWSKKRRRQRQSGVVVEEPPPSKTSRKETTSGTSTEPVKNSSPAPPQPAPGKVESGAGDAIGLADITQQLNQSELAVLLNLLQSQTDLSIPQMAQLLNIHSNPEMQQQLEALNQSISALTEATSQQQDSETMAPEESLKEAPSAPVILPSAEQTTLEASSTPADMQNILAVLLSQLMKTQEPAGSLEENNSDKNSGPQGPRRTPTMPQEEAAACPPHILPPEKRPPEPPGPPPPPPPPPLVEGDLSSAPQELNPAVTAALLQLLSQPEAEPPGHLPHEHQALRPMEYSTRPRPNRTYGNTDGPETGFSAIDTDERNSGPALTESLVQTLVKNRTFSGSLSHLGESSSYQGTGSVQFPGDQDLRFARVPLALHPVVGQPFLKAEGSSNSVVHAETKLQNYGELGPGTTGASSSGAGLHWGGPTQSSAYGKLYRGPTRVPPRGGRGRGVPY
Sequence of CDK12 (O75909 whole entry partner): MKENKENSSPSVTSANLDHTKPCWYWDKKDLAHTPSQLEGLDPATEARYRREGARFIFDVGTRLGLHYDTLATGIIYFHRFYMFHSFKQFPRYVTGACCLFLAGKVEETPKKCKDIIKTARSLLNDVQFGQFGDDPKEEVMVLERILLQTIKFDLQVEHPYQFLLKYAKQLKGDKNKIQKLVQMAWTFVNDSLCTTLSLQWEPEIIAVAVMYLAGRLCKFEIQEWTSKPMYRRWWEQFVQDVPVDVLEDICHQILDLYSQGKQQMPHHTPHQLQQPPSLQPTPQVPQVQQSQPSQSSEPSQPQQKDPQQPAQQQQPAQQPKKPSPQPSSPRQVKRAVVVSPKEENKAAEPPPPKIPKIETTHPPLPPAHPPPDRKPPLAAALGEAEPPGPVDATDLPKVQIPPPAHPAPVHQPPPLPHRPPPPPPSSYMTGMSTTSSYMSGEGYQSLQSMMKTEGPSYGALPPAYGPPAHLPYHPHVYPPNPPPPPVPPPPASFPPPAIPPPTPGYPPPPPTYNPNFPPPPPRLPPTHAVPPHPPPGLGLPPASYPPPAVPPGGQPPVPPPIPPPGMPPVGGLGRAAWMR

Row | Structure (SMILES) | IC50 (CDK12) [µM] | IC50 [1] [µM] | IC50 [2] [µM] | IC50 [3, 6] [µM] | IC50 (CDK9) [µM] | IC50 [4, 7] [µM] | IC50 [5] [µM] | IC50 [4, 8] [µM] | IC50 ([3]; read-out: IC50 (µM) HePG- 2, MTT assay, HepG2 cells) [µM]
1 | Cc1nc2ccccc2n1-c1nc(Nc2cccc(S(N)(=O)=O)c2)ncc1F [Compound 4f, 3-((5-fluoro-4-(2-methyl-1H-benzo[d]imidazol-1-yl)pyrimidin-2-yl)amino)benzenesulfonamide] | 1.14 ± 0.044 | 21.7 ± 1.7 | 41.2 ± 2.5 | 15.4 ± 1.2 | 0.762 ± 0.033 | 23.6 ± 1.7 | 33.5 ± 2 | – | –
2 | CC(C)c1nc2ccccc2n1-c1nc(Nc2cccc(S(N)(=O)=O)c2)ncc1C(F)(F)F [Compound 4p, 3-((4-(2-isopropyl-1H-benzo[d]imidazol-1-yl)− 5-(trifluoromethyl)pyrimidin-2-yl)amino)benzenesulfonamide] | 0.664 ± 0.026 | > 50 | 45.3 ± 2.7 | > 50 | 0.153 ± 0.007 | > 50 | > 50 | – | –
3 | Cc1cnc(Nc2cccc(S(N)(=O)=O)c2)nc1-n1c(C(C)C)nc2ccccc21 [Compound 4o, 3-((4-(2-isopropyl-1H-benzo[d]imidazol-1-yl)− 5-methylpyrimidin-2-yl)amino)benzenesulfonamide] | 1.88 ± 0.073 | > 50 | > 50 | > 50 | 1.05 ± 0.045 | > 50 | > 50 | – | –
4 | Cc1cnc(Nc2cccc(S(N)(=O)=O)c2)nc1-n1cnc2ccccc21 [Compound 4c, 3-((4-(1H-benzo[d]imidazol-1-yl)− 5-methylpyrimidin-2-yl)amino)benzenesulfonamide] | 0.14 ± 0.005 | > 50 | > 50 | 44.4 ± 2.5 | 0.041 ± 0.002 | 49.8 ± 2.7 | > 50 | – | –
5 | Cc1cnc(Nc2cccc(S(N)(=O)=O)c2)nc1-n1c(C)nc2ccccc21 [Compound 4 g, 3-((5-methyl-4-(2-methyl-1H-benzo[d]imidazol-1-yl)pyrimidin-2-yl)amino)benzenesulfonamide] | 0.071 ± 0.003 | 5.08 ± 0.3 | > 50 | 7.59 ± 0.6 | 0.114 ± 0.005 | 12.6 | 9.34 ± 0.8 | 12.7 ± 0.9 | –
6 | NS(=O)(=O)c1cccc(Nc2ncc(F)c(-n3c(C4CC4)nc4ccccc43)n2)c1 [Compound 4r, 3-((4-(2-cyclopropyl-1H-benzo[d]imidazol-1-yl)− 5-fluoropyrimidin-2-yl)amino)benzenesulfonamide] | 0.104 ± 0.001 | 16.2 ± 1.4 | > 50 | 11.4 ± 0.9 | 0.242 ± 0.01 | 26.5 ± 1.8 | 29.8 ± 1.9 | – | –
7 | Cc1nc2ccccc2n1-c1ccnc(Nc2cccc(S(N)(=O)=O)c2)n1 [Compound 4e, 3-((4-(2-methyl-1H-benzo[d]imidazol-1-yl)pyrimidin-2-yl)amino)benzenesulfonamide] | 0.425 ± 0.017 | > 50 | 39 ± 2.3 | > 50 | 0.409 ± 0.018 | > 50 | > 50 | – | –
8 | Cc1cnc(Nc2cccc(S(N)(=O)=O)c2)nc1-n1c(C(F)(F)F)nc2ccccc21 [Compound 4k, 3-((5-methyl-4-(2-(trifluoromethyl)− 1H-benzo[d]imidazol-1-yl)pyrimidin-2-yl)amino)benzenesulfonamide] | 1.21 ± 0.047 | 39.8 ± 2.2 | > 50 | 34.1 ± 2.1 | 5.47 ± 0.236 | 42.8 ± 2.3 | 48.7 ± 2.7 | – | –
9 | Cc1cnc(Nc2cccc(S(N)(=O)=O)c2)nc1-n1c(C2CC2)nc2ccccc21 [Compound 4 s, 3-((4-(2-cyclopropyl-1H-benzo[d]imidazol-1-yl)− 5-methylpyrimidin-2-yl)amino)benzenesulfonamide] | 0.189 ± 0.007 | 45.7 ± 2.4 | 28 ± 2 | 38.1 ± 2.3 | 0.408 ± 0.018 | 47.2 ± 2.5 | > 50 | – | –
10 | NS(=O)(=O)c1cccc(Nc2ncc(C(F)(F)F)c(-n3c(C4CC4)nc4ccccc43)n2)c1 [Compound 4 t, 3-((4-(2-cyclopropyl-1H-benzo[d]imidazol-1-yl)− 5-(trifluoromethyl)pyrimidin-2-yl)amino)benzenesulfonamide] | 0.533 ± 0.021 | 27.8 ± 1.8 | > 50 | 29.3 ± 1.9 | 0.121 ± 0.005 | 30.3 ± 1.9 | 38.8 ± 2.3 | – | –
11 | NS(=O)(=O)c1cccc(Nc2nccc(-n3c(C4CC4)nc4ccccc43)n2)c1 [Compound 4q, 3-((4-(2-cyclopropyl-1H-benzo[d]imidazol-1-yl)pyrimidin-2-yl)amino)benzenesulfonamide] | 0.074 ± 0.003 | 8.19 ± 0.5 | 31.4 ± 2.1 | 5.88 ± 0.4 | 0.057 ± 0.002 | 9.71 ± 0.7 | 13.7 ± 1 | – | –
12 | Cc1nc2ccccc2n1-c1nc(Nc2cccc(S(N)(=O)=O)c2)ncc1C(F)(F)F [Compound 4 h, 3-((4-(2-methyl-1H-benzo[d]imidazol-1-yl)− 5-(trifluoromethyl)pyrimidin-2-yl)amino)benzenesulfonamide] | 0.153 ± 0.006 | > 50 | > 50 | > 50 | 0.05 ± 0.002 | > 50 | > 50 | – | –
13 | NS(=O)(=O)c1cccc(Nc2ncc(C(F)(F)F)c(-n3cnc4ccccc43)n2)c1 [Compound 4 d, 3-((4-(1H-benzo[d]imidazol-1-yl)− 5-(trifluoromethyl)pyrimidin-2-yl)amino)benzenesulfonamide] | 1.33 ± 0.052 | > 50 | > 50 | > 50 | 0.782 ± 0.034 | > 50 | > 50 | – | –
14 | CC(C)c1nc2ccccc2n1-c1ccnc(Nc2cccc(S(N)(=O)=O)c2)n1 [Compound 4 m, 3-((4-(2-isopropyl-1H-benzo[d]imidazol-1-yl)pyrimidin-2-yl)amino)benzenesulfonamide] | 0.06 ± 0.002 | 2.18 ± 0.1 | > 50 | 3.56 ± 0.2 | 0.04 ± 0.002 | 6.39 ± 0.4 | 7.19 ± 0.5 | – | –
15 | CC(C)c1nc2ccccc2n1-c1nc(Nc2cccc(S(N)(=O)=O)c2)ncc1F [Compound 4n, 3-((5-fluoro-4-(2-isopropyl-1H-benzo[d]imidazol-1-yl)pyrimidin-2-yl)amino)benzenesulfonamide] | 0.179 ± 0.007 | 32.4 ± 2 | 76.1 ± 3.9 | 19.8 | 0.392 ± 0.017 | 36.4 ± 2.1 | 43.3 ± 2.5 | – | 19.9 ± 1.4
16 | NS(=O)(=O)c1cccc(Nc2ncc(F)c(-n3c(C(F)(F)F)nc4ccccc43)n2)c1 [Compound 4j, 3-((5-fluoro-4-(2-(trifluoromethyl)− 1H-benzo[d]imidazol-1-yl)pyrimidin-2-yl)amino)benzenesulfonamide] | 0.104 ± 0.004 | 11.7 ± 0.9 | > 50 | 8.54 ± 0.7 | 0.055 ± 0.002 | 19.4 | 16.8 ± 1.2 | 19.2 ± 1.5 | –
17 | COc1cccc2c1C(=O)c1c(O)c3c(c(O)c1C2=O)C[C@@](O)(C(=O)CO)C[C@@H]3O[C@H]1C[C@H](N)[C@H](O)[C@H](C)O1 [Doxorubicin, reference compound] | – | – | – | 4.5 ± 0.2 | – | – | – | – | –
18 | NS(=O)(=O)c1cccc(Nc2nccc(-n3cnc4ccccc43)n2)c1 [Compound 4a, 3-((4-(1H-benzo[d]imidazol-1-yl)pyrimidin-2-yl)amino)benzenesulfonamide] | 0.295 ± 0.011 | > 50 | 25.4 ± 1.8 | > 50 | 0.396 ± 0.017 | > 50 | > 50 | – | –
19 | NS(=O)(=O)c1cccc(Nc2ncc(C(F)(F)F)c(-n3c(C(F)(F)F)nc4ccccc43)n2)c1 [Compound 4 l, 3-((5-(trifluoromethyl)− 4-(2-(trifluoromethyl)− 1H-benzo[d]imidazol-1-yl)pyrimidin-2-yl)amino)benzenesulfonamide] | 0.899 ± 0.035 | > 50 | 18.3 ± 1.3 | > 50 | 1.67 ± 0.072 | > 50 | > 50 | – | –
20 | NS(=O)(=O)c1cccc(Nc2nccc(-n3c(C(F)(F)F)nc4ccccc43)n2)c1 [Compound 4i, 3-((4-(2-(trifluoromethyl)− 1H-benzo[d]imidazol-1-yl)pyrimidin-2-yl)amino)benzenesulfonamide] | 0.365 ± 0.014 | > 50 | > 50 | 48.3 ± 2.7 | 1.09 ± 0.047 | > 50 | > 50 | – | –
21 | NS(=O)(=O)c1cccc(Nc2ncc(F)c(-n3cnc4ccccc43)n2)c1 [Compound 4b, 3-((4-(1H-benzo[d]imidazol-1-yl)− 5-fluoropyrimidin-2-yl)amino)benzenesulfonamide] | 0.566 ± 0.022 | 14.2 ± 1.2 | 46.7 ± 2.6 | 22.3 ± 1.6 | 1.15 ± 0.05 | 17 ± 1.3 | 24.7 ± 1.7 | – | –
